Results published in patent US10030012B2, “Piperidin-1-yl and azepin-1-yl carboxylates as muscarinic M4 receptor agonists” (Heptares Therapeutics Limited, priority 2013, dated 2018).

Key:
human M4 receptor = human M4 receptor (Homo sapiens (Human), UniProt P08173); assay: In vitro M4 functional assay (intracellular calcium, FLiPR Tetra); assay type: cell-based; details: for EC50: CHOK1 cells stably expressing human M4 receptor and Gα16, calcium flux; for Emax: relative efficacy to an EC100 concentration of acetylcholine, read-out: M4 % RE
Description: (§1) In Vitro M4 &M2 Functional Assay
(§2) The functional activity of compounds at the M4 and M2 receptors was determined by measuring changes in the level of intracellular calcium ions caused by signalling cascades mediated by the receptor. Intracellular Calcium levels were measured using a calcium sensitive fluorescent dye, calcium 5 (Molecular Devices) The changes in fluorescence were monitored by a fluorescent imager, FLiPR Tetra (Molecular devices). Increases in intracellular calcium were readily detected upon activation of both receptors by the muscarinic receptor agonist Acetylcholine.
(§3) CHOK1 cells stably expressing human M4 or M2 receptor and co-expressing the accessory g-protein Gα16 were routinely grown as monolayers in Hams-F12 medium (Invitrogen) supplemented with 10% foetal bovine serum (FBS) (Hyclone), 500 ug/mL Geneticin and 250 ug/mL zeocin (both invitrogen) in 5% CO2 at 37° C. Once confluent is cells cryopreserved by freezing at −186° C. in freezing solution (90% FBS 10% DMSO) (Sigma-Aldrich Co.). Twenty-four hours prior to testing cells resuscitated and freezing media removed via centrifugation, cells then seeded in a black walled clear bottom 384 well plates (Corning) at a density of 15,000 cells/well in Hams F12 media supplemented with 10% FBS. On the day of assay, growth media was removed and replaced with 63 μl of Calcium 5 dye solution (Molecular Devices) in assay buffer (HBSS, 20 mM HEPES, 0.1% BSA, 1 mM Probenecid pH7.4 (Sigma-Aldrich Co.)) per well (each vial of Calcium 5 resuspended in 27 mL of assay buffer). Cells were then incubated for 45 minutes at 37° C., 5% CO2. Compound was serially diluted in DMSO (log/half log) before being diluted 1:20 with assay buffer. 7 μl of compound diluted in assay buffer was then added to cells on FLiPR tetra and fluorescence intensity measured for 5 minutes. EC50 values for compounds were determined from ten point half log scale dose-response studies and represent the concentration of compound required to […] maximal response. Curves were generated using the average of duplicate wells for each data point and analyzed using non-linear regression of four parameter dose response. Percentage Relative efficacy (RE) to an EC100 concentration of acetylcholine was reported for all compounds. The results are set out in Table 3 below in which the term “No Response” means that there was no significant response of calcium flux in the assay indicative of agonism.

human M2 receptor = human M2 receptor (Homo sapiens (Human), UniProt P08172); assay: In vitro M2 functional assay (intracellular calcium, FLiPR Tetra); assay type: cell-based; details: CHOK1 cells stably expressing human M2 receptor and Gα16; calcium flux; No Response = no significant response of calcium flux indicative of agonism
Description: as §1, §2, §3

Chain of human M4 receptor (P08173 whole entry): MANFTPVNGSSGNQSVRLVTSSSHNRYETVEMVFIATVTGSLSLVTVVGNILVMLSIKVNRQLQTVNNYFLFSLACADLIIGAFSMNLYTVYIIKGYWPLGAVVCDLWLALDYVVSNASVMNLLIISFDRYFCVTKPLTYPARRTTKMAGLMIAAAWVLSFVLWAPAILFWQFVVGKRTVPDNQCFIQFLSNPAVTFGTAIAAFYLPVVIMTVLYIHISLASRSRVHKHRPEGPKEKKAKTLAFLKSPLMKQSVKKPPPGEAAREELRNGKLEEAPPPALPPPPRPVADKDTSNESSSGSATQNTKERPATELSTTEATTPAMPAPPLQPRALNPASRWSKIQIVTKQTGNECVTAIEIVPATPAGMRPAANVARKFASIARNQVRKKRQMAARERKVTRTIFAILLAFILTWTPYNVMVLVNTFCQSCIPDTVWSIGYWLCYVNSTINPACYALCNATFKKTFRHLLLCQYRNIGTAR
Chain of human M2 receptor (P08172 whole entry): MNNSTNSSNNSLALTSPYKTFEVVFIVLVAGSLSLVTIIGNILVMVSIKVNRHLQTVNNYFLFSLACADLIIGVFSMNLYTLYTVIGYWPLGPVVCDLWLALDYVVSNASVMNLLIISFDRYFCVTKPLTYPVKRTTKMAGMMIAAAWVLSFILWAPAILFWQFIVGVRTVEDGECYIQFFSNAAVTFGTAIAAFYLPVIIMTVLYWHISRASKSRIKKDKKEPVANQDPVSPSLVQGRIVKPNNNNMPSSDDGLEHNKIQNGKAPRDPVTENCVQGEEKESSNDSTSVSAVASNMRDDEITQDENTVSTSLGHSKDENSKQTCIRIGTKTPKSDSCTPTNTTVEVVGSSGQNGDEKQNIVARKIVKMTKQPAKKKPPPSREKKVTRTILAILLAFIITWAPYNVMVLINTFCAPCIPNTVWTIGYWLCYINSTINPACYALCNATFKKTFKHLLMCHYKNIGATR

SMILES | EC50 (human M4 receptor) | Emax (human M4 receptor) | M2 EC50 (human M2 receptor)
CCOC(=O)N1CCCC(N2CCC(c3cccn(CC#N)c3=O)CC2)CC1 (stereo not drawn) [Example 56, Ethyl 4-{4-[1-(cyanomethyl)-2-oxo-1,2-dihydropyridin-3-yl]piperidin-1-yl}azepane-1-carboxylate] | 2350 nM | 24% | No Response
CCOC(=O)N1CCCC(N2CCC(c3cccn(CC)c3=O)CC2)CC1 (stereo not drawn) [Example 57, Ethyl 4-[4-(1-ethyl-2-oxo-1,2-dihydropyridin-3-yl)piperidin-1-yl]azepane-1-carboxylate] | 890 nM | 37% | No Response
CCOC(=O)N1CCCC(N2CCC(c3nc(C)ncc3OC)CC2)CC1 (stereo not drawn) [Example 63, Ethyl 4-[4-(5-methoxy-2-methylpyrimidin-4-yl)piperidin-1-yl]azepane-1-carboxylate] | 560 nM | 43% | No Response
CCOC(=O)N1CCCC(N2CCC(c3cccnc3-c3ccnn3C)CC2)CC1 (stereo not drawn) [Example 64, Ethyl 4-{4-[2-(1-methyl-1H-pyrazol-5-yl)pyridin-3-yl]piperidin-1-yl}azepane-1-carboxylate] | 3140 nM | 35% | No Response
CCOC(=O)N1CCCC(N2CCC(c3cccnc3NCC3CC3)CC2)CC1 (stereo not drawn) [Example 67, Ethyl 4-(4-{2-[(cyclopropylmethyl)amino]pyridin-3-yl}piperidin-1-yl)azepane-1-carboxylate] | 990 nM | 37% | No Response

Now those with a lower EC50 (human M4 receptor), led by results:

EC50 (human M4 receptor) | Emax (human M4 receptor) | M2 EC50 (human M2 receptor) | SMILES
2 nM | 95% | No Response | CCOC(=O)N1CCCC(N2CCC(c3cc(Cl)cnc3OC)CC2)CC1 (stereo not drawn) [Example 58, Ethyl 4-[4-(5-chloro-2-methoxypyridin-3-yl)piperidin-1-yl]azepane-1-carboxylate]
530 nM | 30% | No Response | CCOC(=O)N1CCCC(N2CCC(c3nc(C)cnc3C)CC2)CC1 (stereo not drawn) [Example 59, Ethyl 4-[4-(3,6-dimethylpyrazin-2-yl)piperidin-1-yl]azepane-1-carboxylate]
180 nM | 68% | No Response | CCOC(=O)N1CCCC(N2CCC(c3nc(C(F)(F)F)ncc3OC)CC2)CC1 (stereo not drawn) [Example 60, Ethyl 4-{4-[5-methoxy-2-(trifluoromethyl)pyrimidin-4-yl]piperidin-1-yl}azepane-1-carboxylate]
150 nM | 66% | No Response | CCOC(=O)N1CCCC(N2CCC(c3cccnc3-c3cnn(C(C)C)c3)CC2)CC1 (stereo not drawn) [Example 61, Ethyl 4-(4-{2-[1-(propan-2-yl)-1H-pyrazol-4-yl]pyridin-3-yl}piperidin-1-yl)azepane-1-carboxylate]
360 nM | 53% | No Response | CCOC(=O)N1CCCC(N2CCC(c3cccnc3NC)CC2)CC1 (stereo not drawn) [Example 62, Ethyl 4-{4-[2-(methylamino)pyridin-3-yl]piperidin-1-yl}azepane-1-carboxylate]
190 nM | 87% | No Response | CCOC(=O)N1CCCC(N2CCC(c3cccnc3N(C)C)CC2)CC1 (stereo not drawn) [Example 65, Ethyl 4-{4-[2-(dimethylamino)pyridin-3-yl]piperidin-1-yl}azepane-1-carboxylate]
120 nM | 84% | No Response | CCOC(=O)N1CCCC(N2CCC(c3cccnc3C3CC3)CC2)CC1 (stereo not drawn) [Example 66, Ethyl 4-[4-(2-cyclopropylpyridin-3-yl)piperidin-1-yl]azepane-1-carboxylate]
540 nM | 45% | No Response | CCOC(=O)N1CCC(N2CCC(c3nccs3)CC2)CC1 [Example 68, Ethyl 4-[4-(1,3-thiazol-2-yl)piperidin-1-yl]piperidine-1-carboxylate]
